From publication PMC5068747, “Using C. elegans Forward and Reverse Genetics to Identify New Compounds with Anthelmintic Activity” (PLoS Neglected Tropical Diseases, 2016)
Where “and” joins values, the source holds several entries; their conditions need not be identical. Identical values can stand only once.

Columns and labels:
[1] = system: C. elegans VC3635 (pink-1 gk3615, D19 resistant); test: IC50 on CID 2747322 resistant C. elegans strain VC3635; assay type: in vivo, Caenorhabditis elegans; conditions: Caenorhabditis elegans, 120 h; 5 days exposure, 2 L4 per well, three biological replicates
Procedure: All compound libraries were stored in 96-well plates, with 80 drugs per plate (columns 1 and 12 left empty). A BioGrid BG600 pinning robot (Digilab / BioRobotics) was used for compound transfer. The robot uses a 96-pin tool (0.7 mm dia.) to transfer a nominal volume of 340 nL of compound. For retesting, compounds were hand pinned from the original library plates to assay plates using a single 0.7 mm dia. pin. The assay plates were 96-well clear flat-bottom microplates containing 2% χ1666 E.coli bacteria in 0.5X Liquid Nematode Growth Media (LNGM) plus cholesterol (Bacteria were mass-grown in rich media, and harvested by centrifugation to produce a thick paste of bacterial cells that was kept frozen at -20°C. Cells were resuspended at 2% W/V in 0.5X LNGM to produce liquid worm food). Using a COPAS Biosort (Union Biometrica), two L4 to young adult stage VC2010 worms were added to each well of the plate in a final volume of 45 μL. After five days of exposure to the compounds, the plates were scanned and the data analyzed. A five day time period was chosen to be able to observe effects over all stages of the life cycle and through at least one round of replication. The initial proof-of-principle primary screen was performed manually using a dissecting microscope. Phenotypes scored included decreased motility, reduced brood size, and/or death as described previously. For high throughput screening of the Chembridge and Maybridge compound libraries we used the program WormScan, which was adapted for screening 96-well flat-bottom LNGM plates. Using WormScan it was possible to screen four 96-well plates at a time. Plates were scanned twice, at a resolution of 1200 dots per inch, 16-bit grayscale, producing a jpeg image. The light intensity produced by the scanner was sufficient to cause negative phototaxis equivalent to a physical stimulus for mortality determination. The time required to scan four 96-well plates using an Epson Perfection V700 Photo Scanner was less than ten minutes. The time to screen a single plate was less than 1.2 minutes, with less than ten seconds between scans.
WormScan was used to screen for the same phenotypes as in the manual screen (reduced brood size, reduced behavior/motility response and increased mortality). Two sequential scans for each 96-well plate were aligned to a reference region of interest (ROI). Image analysis was based on a difference image score calculated for each ROI. The difference image score (WormScan score) was normalized using a “percent of control” method to derive a normalized WormScan score. […] Wild-type growth in 1% DMSO (Fig 1A) results in a normalized WormScan score of 100. Exposure to 50 nM ivermectin gives a score of 0 (Fig 1C), and complete absence of worms gives a score of 0 (Fig 1D). For the primary screen the WormScan score was calculated using custom macro scripts written for Fiji. For secondary screening and any subsequent studies the WormScan score was calculated using a standalone Java program (See supplemental). Probit regression of mortality was calculated using Mathematica 8.0.
A standard ethyl methanesulfonate (EMS) mutagenesis protocol was carried out using VC2010 in order to generate mutants resistant to CID 2747322 exposure. First larval stage (L1) F2 progeny of mutagenized P0s were exposed to CID 2747322 at 200 μM in liquid worm food in 24-well tissue culture plates for five days at room temperature, and two independently isolated resistant lines (VC3614 and VC3615) were identified. […]

Meloidogyne hapla J2 = test: Immobilization of infective second-stage juveniles (J2) of Meloidogyne hapla; assay type: in vivo
Procedure: A laboratory population of the plant-parasitic northern root-knot nematode, Meloidogyne hapla, was initiated by inoculating a tomato seedling growing in a 500 ml pot of 50:50 pasteurized sandy soil:peat with ~100 infective second-stage juveniles (J2) extracted from infested soil from a vineyard in the Okanagan Valley. The population was thereafter reared on tomato under greenhouse conditions. Prior to experimentation, galled roots were removed from heavily infested tomato plants, washed over a sieve with tap water, and then placed on Baermann funnels. J2 hatchings over the first three days were collected and suspended in tap water at a concentration of 100 J2/ml. Replicate 24-well cell culture plates were seeded with 0.2 ml of J2 suspension. Dilutions of CID 2747322 in distilled water were then added to the wells to result in four replicate wells of each of six concentrations in each plate. Concentrations tested spanned 0 to 320 μM and 0 to 160 μM in the two separate runs of the experiment. Nematodes were observed using an inverted microscope at 40X. On each observation date, a transect through each well was observed and J2 within the transect were scored as mobile or immobile. J2 that had taken on a straight posture were scored as immobile. Recently hatched J2 of M. hapla normally move continuously but slowly and always have a curved posture.
Supplementary file pntd.0005058.s005.pdf: S5 Fig Dosage curve for effects on Meloidogyne hapla of CID 2747322. The percentage of immobilization of infective juveniles of Meloidogyne hapla was measure after ten days of exposure to the compound. Data are from two separate trials testing 0–320 and 0–160 μM concentration ranges, respectively, with each point representing the mean of twelve test wells. (PDF) Click here for additional data file.

[2] = system: C. elegans CB193 (unc-29(e193), levamisole resistant); test: IC50 on levamisole resistant C. elegans strain; assay type: in vivo, Caenorhabditis elegans; conditions: Caenorhabditis elegans, 120 h; 5 days exposure, 2 L4 per well, three biological replicates
C. briggsae = test: Dosage curve on C. briggsae; assay type: in vivo; conditions: Caenorhabditis briggsae, 120 h; two L4 per well, five days of exposure
Text: Supplementary file pntd.0005058.s004.pdf: S4 Fig Dosage curve for effects on C. briggsae of CID 2747322. Two L4 C. briggsae animals were placed into each well of a 96-well pate for five days of exposure to CID 2747322. […] (PDF) Click here for additional data file.

[3] = system: C. elegans DA1316 (avr-14(ad1302); avr-15(vu227); glc-1(pk54), ivermectin resistant); test: IC50 on ivermectin resistant C. elegans strain; assay type: in vivo, Caenorhabditis elegans; conditions: Caenorhabditis elegans, 120 h; 5 days exposure, 2 L4 per well, three biological replicates
[4] = system: C. elegans pink-1 mutant strains; test: Resistance of pink-1 mutant strains (MMP / knockout) to CID 2747322; assay type: in vivo, Caenorhabditis elegans

## COc1ccc(OCCNC(=O)c2ccccc2C(F)(F)F)cc1 [CID 2747322, N-[2-(4-methoxyphenoxy)ethyl]-2-(trifluoromethyl)benzamide]
[1]
  IC50: > 500 µM
Meloidogyne hapla J2; 160 and 320 μM, 24 hours after exposure initiation, increased through day 10
  immobilization of M. hapla J2: Immobilization was observed
Meloidogyne hapla J2; Meloidogyne hapla, 240 h, 10 day exposure
  IC50: 129 µM and 44 µg/mL
Meloidogyne hapla J2; extended exposure
  survival of M. hapla: die after extended exposure
[2]
  IC50: 14 µM
C. briggsae
  IC50: 16 µM
[3]
  IC50: 16 µM
[4]; strain RB2547, pink-1 Knockout
  Resistance: none
[4]; strain VC20205, pink-1 W562stop
  Resistance: none
[4]; strain VC20423, pink-1 V373I
  Resistance: none
[4]; strain VC20470, pink-1 E162K
  Resistance: none
[4]; strain VC20521, pink-1 P226S
  Resistance: sensitive
[4]; strain VC20546, pink-1 P32L
  Resistance: sensitive
[4]; strain VC20588, pink-1 A628T
  Resistance: none
[4]; strain VC30104, pink-1 Knockout
  Resistance: none
[4]; strain VC30182, pink-1 G415E
  Resistance: none
[4]; strain VC40096, pink-1 M1I
  Resistance: none
[4]; strain VC40194, pink-1 D378N
  Resistance: resistant
[4]; strain VC40287, pink-1 S341N
  Resistance: resistant
[4]; strain VC40373, pink-1 A365T
  Resistance: none
[4]; strain VC40385, pink-1 L232F
  Resistance: resistant
[4]; strain VC40392, pink-1 T65I
  Resistance: none
[4]; strain VC40527, pink-1 V334I
  Resistance: none
[4]; strain VC40694, pink-1 M556L
  Resistance: resistant
[4]; strain VC40738, pink-1 E353K
  Resistance: none
[4]; strain VC41008, pink-1 L180F
  Resistance: resistant
